The results in this text go back to patent US10961200B2, “Small molecule inhibitors of lactate dehydrogenase and methods of use thereof” (THE UNITED STATES OF AMERICA, AS REPRESENTED BY THE …, priority 2014, dated 2021).

Where a name gives a salt, the structure may show the parent alone. Read-outs that look alike come from different tables or passages of the source.

Assay [1] has as its system MiaPaCa2 cells. Description: cell-based HT lactate assay, colorimetric/fluorometric detection (inhibition of lactate production). As to conditions: class symbols, 0 to 3 pluses.
For assay [2], the target named is Human LDHA (Homo sapiens (Human), UniProt P00338). The experiment in a line: human LDHA primary biochemical assay (resazurin/diaphorase coupled, fluorescence). The source says: Test compounds were placed in a Greiner Bio-One (Monroe, N.C.) 1536-well black solid bottom assay plate. 200 millimolar (mM) Tris HCl, pH 7.4, 100 micromolar […] EDTA and 0.01% TWEEN-20™, final concentration, was used as the assay buffer. The LDHA reagent was 2 nanomolar (nM) Human LDHA (Meridian Life Science, Inc., Memphis, Tenn.), final concentration, in assay buffer.
A general note: Alamar Blue is a resazurin reagent that responds to reducing activity.

Where [3] appears, read: LDHA inhibitory activity, activity level based on IC50 (Table 7).
The mark [4] stands for this setting: LDHA inhibitory activity, assay of Example 1, activity level classes.
[5] abbreviates: read-out: Inhibitory activity IC50.

For orientation: IC50 means the midpoint of a concentration-inhibition curve.

For the compound `NS(=O)(=O)c1ccc(Cc2c(-c3ccc(F)c(C#CC(F)F)c3)nn(-c3nc(C(=O)O)cs3)c2CC2CC2)cc1F` [Compound 440], the half-maximal inhibitory concentration (IC50) is 1000 to 10000 nM in assay [1] and less than 100 nM in assay [2] (setting [3]).
Take `NS(=O)(=O)c1ccc(Cc2c(-c3ccc(F)c(OCC4CCCO4)c3)nn(-c3nc(C(=O)O)cs3)c2CC2CC2)cc1F` (stereo not shown) [Compound 469, 2-(5-(cyclopropylmethyl)-3-(4-fluoro-3-((tetrahydrofuran-2-yl)methoxy)phenyl)-4-(3-fluoro-4-sulfamoylbenzyl)-1H-pyrazol-1-yl)thiazole-4-carboxylic acid]: the IC50 in assay [1] (Homo sapiens, MIA PaCa-2) was 1000 to 10000 nM; in assay [2] (setting [3]) it was less than 100 nM.
Regarding `CN1CC=C(c2cc(-c3nn(-c4nc(C(=O)O)cs4)c(CC4CC4)c3Cc3ccc(S(N)(=O)=O)c(F)c3)ccc2F)CC1` [Compound 259], the IC50 in assay [1] is 10000 to 57000 nM; in assay [2] (setting [4]) it was less than 100 nM.
With `N[S+](=O)([O-])c1ccc(Cc2c(CC3CC3)nn(-c3nc(C(=O)O)cs3)c2-c2ccc(C(O)(C3CC3)C(F)(F)F)cc2)cc1F` (stereo not shown) [Compound 399], the 50% inhibitory concentration (IC50) in assay [1] (Homo sapiens, MIA PaCa-2) was greater than 57000 nM; in assay [2] (setting [3]), 1000 to 57000 nM.
For the compound `NS(=O)(=O)c1ccc(Cc2c(-c3ccc(F)c(C#CC4(F)COC4)c3)nn(-c3nc(C(=O)O)cs3)c2CC2CC2)cc1F` [Compound 414], the IC50 in assay [1] was 1000 to 10000 nM; in assay [2] (setting [3]), less than 100 nM.
On to `N[S+](=O)([O-])c1ccc(Cc2c(-c3ccc(F)c(C#CCCO)c3)nn(-c3nc(C(=O)O)cs3)c2CC2CC2)cc1F` [Compound 409], for which the IC50 in assay [1] (Homo sapiens, MIA PaCa-2) was 1000 to 10000 nM; in assay [2] (setting [3]), less than 100 nM.
As for `CCOC(=O)c1csc(-n2nc(-c3ccc(F)c(C#CC4CC4)c3)c(Cc3ccc(S(N)(=O)=O)cc3)c2CC2CC2)n1` [Compound 435], the half-maximal inhibitory concentration (IC50) in assay [1] was greater than 57000 nM; in assay [2] (setting [3]), 1000 to 57000 nM.
Regarding `NS(=O)(=O)c1ccc(Cc2c(-c3cccc(-c4ccccc4)c3)nn(-c3nc(C(=O)O)cs3)c2C2CC2)c(F)c1` [Compound 183, 2-(3-([1,1′-biphenyl]-3-yl)-5-cyclopropyl-4-(2-fluoro-4-sulfamoylbenzyl)-1H-pyrazol-1-yl)thiazole-4-carboxylic acid], the half-inhibitory concentration (IC50) in assay [1] (Homo sapiens, MIA PaCa-2) is less than 1000 nM; in assay [2] (setting [4]), less than 100 nM.
For `NS(=O)(=O)c1ccc(Cc2c(-c3cccc(-c4ccccc4)c3)nn(-c3nc(C(=O)O)cs3)c2CCC2CC2)cc1` [Compound 203, 2-(3-([1,1′-biphenyl]-3-yl)-5-(2-cyclopropylethyl)-4-(4-sulfamoylbenzyl)-1H-pyrazol-1-yl)thiazole-4-carboxylic acid] the same measures were less than 1000 nM and less than 100 nM.
As to `NS(=O)(=O)c1ccc(Cc2c(-c3ccc(F)c(C#CC4CCOC4)c3)nn(-c3nc(C(=O)O)cs3)c2CC2CC2)cc1F` (stereo not shown) [Compound 423], the concentration for half-maximal inhibition (IC50) is less than 1000 nM in assay [1] and less than 100 nM in assay [2] (setting [3]).
For `CCOC(=O)c1csc(-n2nc(-c3ccc(F)c(-c4cccc(F)c4)c3)c(Cc3ccc([S+](N)(=O)[O-])c(F)c3)c2CC2CC2)n1` [Compound 377], in that order: greater than 57000 nM and greater than 57000 nM.
For `N[S+](=O)([O-])c1ccc(Cc2c(-c3ccc(F)c(-c4cccc(F)c4)c3)nn(-c3nc(C(=O)O)cs3)c2CC2CC2)c(F)c1` [Compound 324], the half-inhibitory concentration (IC50) was less than 1000 nM in assay [1] and less than 100 nM in assay [2] (setting [4]).
For `NS(=O)(=O)c1ccc(Cc2c(-c3cccc(-c4ccccc4)c3)nn(-c3nc(C(=O)O)cs3)c2CC2CC2)c(F)c1` [Compound 290], in that order: less than 1000 nM and less than 100 nM.
`NS(=O)(=O)c1ccc(Cc2c(-c3ccccc3)nn(-c3nc(C(=O)O)cs3)c2C#CC2CC2)cc1` [Compound 160, 2-(5-(cyclopropylethynyl)-3-phenyl-4-(4-sulfamoylbenzyl)-1H-pyrazol-1-yl)thiazole-4-carboxylic acid]: the IC50 was 1000 to 10000 nM in assay [1] (Homo sapiens, MIA PaCa-2) and less than 100 nM in assay [2] (setting [4]).
As for `CC(F)C#Cc1cc(-c2nn(-c3nc(C(=O)O)cs3)c(CC3CC3)c2Cc2ccc([S+](N)(=O)[O-])c(F)c2)ccc1F` (stereo not shown) [Compound 443], the IC50 in assay [1] (Homo sapiens, MIA PaCa-2) is less than 1000 nM; in assay [2] (setting [3]) it was less than 100 nM.
For `C=C(C)C#Cc1cc(-c2nn(-c3nc(C(=O)O)cs3)c(CC3CC3)c2Cc2ccc(S(N)(=O)=O)c(F)c2)ccc1F` [Compound 264], the 50% inhibitory concentration (IC50) in assay [1] is less than 1000 nM; in assay [2] (setting [4]) it was less than 100 nM.
On to `N[S+](=O)([O-])c1ccc(Cc2c(-c3ccc(F)c(-c4ccccc4)c3)nn(-c3nc(C(=O)O)cs3)c2CC2CC2)cc1F` [Compound 367], for which the IC50 is less than 1000 nM in assay [1] and less than 100 nM in assay [2] (setting [3]).
For the compound `CC(C)(C)C#Cc1cc(-c2nn(-c3nc(C(=O)O)cs3)c(CC3CC3)c2Cc2ccc(S(N)(=O)=O)c(F)c2)ccc1F` [Compound 402], the half-maximal inhibitory concentration (IC50) in assay [1] was less than 1000 nM; in assay [2] (setting [3]), less than 100 nM.
For the compound `N[S+](=O)([O-])c1ccc(Cc2c(-c3ccc(F)c(C4CCOCC4)c3)nn(-c3nc(C(=O)O)cs3)c2CC2CC2)cc1F` [Compound 391], the IC50 in assay [1] is less than 1000 nM; in assay [2] (setting [3]), less than 100 nM.
On to `CC1(C#Cc2cc(-c3nn(-c4nc(C(=O)O)cs4)c(CC4CC4)c3Cc3ccc(S(N)(=O)=O)c(F)c3)ccc2F)COC1` [Compound 416], for which the concentration for half-maximal inhibition (IC50) in assay [1] was 1000 to 10000 nM; in assay [2] (setting [3]), less than 100 nM.
As for `NS(=O)(=O)c1ccc(Cc2c(-c3ccc(F)c(-c4cccc(F)c4)c3)nn(-c3nc(C(=O)O)cs3)c2C2CC2)cc1F` [Compound 251], the figures for the half-inhibitory concentration (IC50) in assay [1] and in assay [2] (setting [4]) were 1000 to 10000 nM and less than 100 nM, respectively.
For `Cc1ccc(-c2cc(-c3nn(-c4nc(C(=O)O)cs4)c(CC4CC4)c3Cc3ccc(S(N)(=O)=O)c(F)c3)ccc2F)cc1` [Compound 288], in that order: less than 1000 nM and less than 100 nM.
For the compound `NS(=O)(=O)c1ccc(Cc2c(-c3cc(F)cc(-c4ccc(F)cc4)c3)nn(-c3nc(C(=O)O)cs3)c2CC2CC2)cc1` [Compound 479, 2-(5-(cyclopropylmethyl)-3-(4′,5-difluoro-[1,1′-biphenyl]-3-yl)-4-(4-sulfamoylbenzyl)-1H-pyrazol-1-yl)thiazole-4-carboxylic Acid], the IC50 is less than 1000 nM in assay [1] (Homo sapiens, MIA PaCa-2) and less than 100 nM in assay [2] (setting [3]).
Turning to `NS(=O)(=O)c1ccc(Cc2c(-c3ccc(F)c(-c4cccs4)c3)nn(-c3nc(C(=O)O)cs3)c2CC2CC2)cc1F` [Compound 234, 2-(5-(cyclopropylmethyl)-3-(4-fluoro-3-(thiophen-2-yl)phenyl)-4-(3-fluoro-4-sulfamoylbenzyl)-1H-pyrazol-1-yl)thiazole-4-carboxylic acid, TFA], the IC50 in assay [1] (Homo sapiens, MIA PaCa-2) is less than 1000 nM; in assay [2] (setting [5]) it was less than 100 nM.
With `COc1cccc(-c2cc(-c3nn(-c4nc(C(=O)O)cs4)c(CC4CC4)c3Cc3ccc(S(N)(=O)=O)c(F)c3)ccc2F)c1` [Compound 330], the IC50 is less than 1000 nM in assay [1] and less than 100 nM in assay [2] (setting [4]).
Consider `N[S+](=O)([O-])c1cccc(Cc2c(-c3ccc(F)c(C#CC4CCCC4)c3)nn(-c3nc(C(=O)O)cs3)c2CC2CC2)c1` [Compound 438], for which the results for the IC50 in assay [1] and in assay [2] (setting [3]) were 1000 to 10000 nM and 100 to 1000 nM, respectively.
Regarding `NS(=O)(=O)c1ccc(Cc2c(-c3ccc(F)c(C#CC4(O)CCOC4)c3)nn(-c3nc(C(=O)O)cs3)c2CC2CC2)cc1F` (stereo not shown) [Compound 418], the 50% inhibitory concentration (IC50) in assay [1] is 1000 to 10000 nM; in assay [2] (setting [3]), less than 100 nM.
As for `NS(=O)(=O)c1ccc(Cc2c(-c3cccc(Oc4ccc(C(F)(F)F)cc4)c3)nn(-c3nc(C(=O)O)cs3)c2CC2CC2)cc1` [Compound 481, 2-(5-(cyclopropylmethyl)-4-(4-sulfamoylbenzyl)-3-(3-(4-(trifluoromethyl)phenoxy)-phenyl)-1H-pyrazol-1-yl)thiazole-4-carboxylic Acid], the IC50 in assay [1] (Homo sapiens, MIA PaCa-2) is 1000 to 10000 nM; in assay [2] (setting [3]) it was less than 100 nM.
As for `N[S+](=O)([O-])c1ccc(Cc2c(-c3ccc(F)c(C#CC4CC4)c3)nn(-c3nc(C(=O)O)cs3)c2CC2CC2)cc1` [Compound 433], the IC50 in assay [1] was less than 1000 nM; in assay [2] (setting [3]), less than 100 nM.
For `N[S+](=O)([O-])c1ccc(Cc2c(-c3ccc(F)c(C#CCC4CCCO4)c3)nn(-c3nc(C(=O)O)cs3)c2CC2CC2)cc1F` (stereo not shown) [Compound 421] the same measures were 1000 to 10000 nM and less than 100 nM.
As for `NS(=O)(=O)c1ccc(Cc2c(-c3ccc(F)c(C(=O)NCc4ccccc4)c3)nn(-c3nc(C(=O)O)cs3)c2CC2CC2)cc1F` [Compound 544, 2-(3-(3-(benzylcarbamoyl)-4-fluorophenyl)-5-(cyclopropylmethyl)-4-(3-fluoro-4-sulfamoylbenzyl)-1H-pyrazol-1-yl)thiazole-4-carboxylic acid], the IC50 is 1000 to 10000 nM in assay [1] (Homo sapiens, MIA PaCa-2) and less than 100 nM in assay [2] (setting [3]).
For `Cc1cc(-c2ccc(F)cc2)cc(-c2nn(-c3nc(C(=O)O)cs3)c(CC3CC3)c2Cc2ccc(S(N)(=O)=O)cc2)c1` [Compound 506, 2-(5-(cyclopropylmethyl)-3-(4′-fluoro-5-methyl-[1,1′-biphenyl]-3-yl)-4-(4-sulfamoylbenzyl)-1H-pyrazol-1-yl)thiazole-4-carboxylic Acid], in that order: 1000 to 10000 nM and less than 100 nM.
As for `CCOC(=O)c1csc(-n2nc(-c3ccc(F)c(C#CC4CCCC4)c3)c(Cc3ccc(S(N)(=O)=O)c(F)c3)c2CC2CC2)n1` [Compound 268], the IC50 in assay [1] and in assay [2] (setting [4]) was greater than 57000 nM in each case.
Take `Cc1cnc(-c2cc(-c3nn(-c4nc(C(=O)O)cs4)c(CC4CC4)c3Cc3ccc(S(N)(=O)=O)c(F)c3)ccc2F)s1` [Compound 231, 2-(5-(cyclopropylmethyl)-3-(4-fluoro-3-(5-methylthiazol-2-yl)phenyl)-4-(3-fluoro-4-sulfamoylbenzyl)-1H-pyrazol-1-yl)thiazole-4-carboxylic acid, TFA]: the IC50 is less than 1000 nM in assay [1] (Homo sapiens, MIA PaCa-2) and less than 100 nM in assay [2] (setting [5]).
Consider `CCC(C)(C)c1cc(-c2nn(-c3nc(C(=O)O)cs3)c(CC3CC3)c2Cc2ccc(S(N)(=O)=O)c(F)c2)ccc1F` [Compound 381], for which the half-inhibitory concentration (IC50) in assay [1] is less than 1000 nM; in assay [2] (setting [3]), less than 100 nM.
